Assay results from patent US7410975B2, “Small molecule toll-like receptor (TLR) antagonists” (Coley Pharmaceutical Group, Inc., priority 2003, dated 2008).

target: T1, human TLR9 (hTLR9) (Homo sapiens, UniProt Q9NR96); assay: Antagonist screen, hTLR9-NFκB-293 cells, 6× NF-κB-luciferase reporter, with EC50 of CpG ODN 2006; format: cell-based; conditions: FIG. 1, graph
T1 construct: expressed in transfected cells
T1 sequence (Q9NR96 26-1032): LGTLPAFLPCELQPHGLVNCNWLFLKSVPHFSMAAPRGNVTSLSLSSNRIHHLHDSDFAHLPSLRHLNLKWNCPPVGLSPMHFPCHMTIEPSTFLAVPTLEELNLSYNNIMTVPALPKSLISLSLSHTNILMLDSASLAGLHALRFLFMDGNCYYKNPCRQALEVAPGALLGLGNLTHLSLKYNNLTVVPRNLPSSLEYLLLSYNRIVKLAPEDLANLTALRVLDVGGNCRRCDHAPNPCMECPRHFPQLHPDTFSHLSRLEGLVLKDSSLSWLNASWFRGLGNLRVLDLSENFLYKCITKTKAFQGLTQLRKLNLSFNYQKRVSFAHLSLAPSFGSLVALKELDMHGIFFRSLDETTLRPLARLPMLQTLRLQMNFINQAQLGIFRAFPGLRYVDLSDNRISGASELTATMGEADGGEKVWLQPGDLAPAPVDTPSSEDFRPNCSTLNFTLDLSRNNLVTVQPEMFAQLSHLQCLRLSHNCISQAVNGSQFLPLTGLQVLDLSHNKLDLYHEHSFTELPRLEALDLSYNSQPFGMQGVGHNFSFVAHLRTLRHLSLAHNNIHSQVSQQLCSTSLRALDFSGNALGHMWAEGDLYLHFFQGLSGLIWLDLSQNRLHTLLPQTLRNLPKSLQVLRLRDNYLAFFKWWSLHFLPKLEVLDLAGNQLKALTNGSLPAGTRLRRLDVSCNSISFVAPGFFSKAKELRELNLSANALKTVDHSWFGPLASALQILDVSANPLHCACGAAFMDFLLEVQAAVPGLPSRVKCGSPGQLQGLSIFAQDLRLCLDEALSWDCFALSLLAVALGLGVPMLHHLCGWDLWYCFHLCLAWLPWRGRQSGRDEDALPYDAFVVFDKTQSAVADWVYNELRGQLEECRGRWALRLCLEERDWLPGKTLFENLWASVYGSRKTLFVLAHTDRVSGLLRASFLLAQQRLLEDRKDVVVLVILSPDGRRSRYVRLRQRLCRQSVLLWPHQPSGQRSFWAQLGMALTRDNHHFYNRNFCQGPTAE
Experimental: Candidate small molecules for initial screening were obtained from a commercially available library of 880 off-patent small molecules selected for structural diversity and proven bioavailability in humans (Prestwick Chemical Library). […] Results were measured as fold induction over baseline luciferase activity measured in the absence of ODN 2006 and compared to fold induction over baseline in the presence of the EC50 concentration of ODN 2006 alone. […] Additional screening was performed in like manner using additional small molecules selected from another library or specifically prepared for this purpose.
The method is described in greater detail as follows. The cells for each individual cell clone (hTLR3-NFκB-293, hTLR7-NFκB-293, hTLR8-NFκB-293 and hTLR9-NFκB-293) were counted and seeded one day before the stimulation at 1.5×10^4 cells per well in 96-well cell culture plates. To become adherent the cells were incubated after seeding overnight at 37° C. in 5% CO2 humidified air.
The screen for each compound was performed at the same time for all of the receptors TLR3, TLR7, TLR8 and TLR9. Up to fifteen test compounds, each assayed in duplicate at each of three different final concentrations (0.5 μg/ml, 5 μg/ml, and 50 μg/ml), were used for 16 h cell stimulation on a single multiwell culture plate. A 4× final concentration master plate was created to prepare the different test compounds before they were added to the cells.
Controls were added as duplicates individually for each cell clone on the cell culture plate. Positive controls were used as follows (final concentrations): 50 μg/ml poly(I:C) for hTLR3-NFκB-293; 8 μM resiquimod (R848) for hTLR7-NFκB-293; 30 μM R848 for hTLR8-NFκB-293; and 2.5 μM CpG-ODN 2006 for hTLR9-NFκB-293. Media alone was used as negative control. After addition of controls and small molecules, the cell clones were additionally stimulated with the EC50 concentration of the appropriate receptor-specific ligand.
The mean value of wells H2 and H5 (each with cells and EC50 concentration of the appropriate receptor-specific ligand) divided by the mean of wells H3 and H6 (each with cells alone) yielded the baseline response (i.e., fold induction of luciferase activity) to EC50 concentration of the appropriate receptor-specific ligand.
After 16 h stimulation the supernatant was removed and the cells treated with lysis buffer and stored at −80° C. before measuring.
For each screen result a graphical documentation was performed.
The baseline result (measured with addition of the EC50 concentration of the receptor-specific ligand) for each cell culture plate was measured as described above. Antagonistic effects were measured by down regulation compared to the baseline. Antagonists were scored as follows: • 13: compounds for which there was clear down regulation at 0.5 μg/ml, 5 μg/ml, and 50 μg/ml; • 12: compounds for which there was clear down regulation at 5 μg/ml and 50 μg/ml; • 11: compounds for which there was clear down regulation only at 50 μg/ml; • —: compounds for which there was no clear down regulation even at 50 μg/ml. Agonists

Row | Compound | inhibition of TLR9 signaling in response to CpG ODN 2006 (FIG. 1)
1 | c1ccc2c(c1)[nH]c1cnccc12 [compound 470, norharman] | concentration-dependent inhibition

same assay, conditions: compound at 0.5, 5, 50 μg/ml; EC50 concentration of CpG ODN 2006; 16 h; NF-κB-luciferase

Row | Compound | hTLR9 (inhibitory effect, antagonist score)
2 | CN(C)CC/C=C1/c2ccccc2Sc2ccc(Cl)cc21.Cl [compound 348, Chlorprothixenehydrochloride] | 12 (compounds for which there was clear down regulation at 5 μg/ml and 50 μg/ml)
3 | OCCN1CCN(CCCN2c3ccccc3Sc3ccc(Cl)cc32)CC1 [compound 125, Perphenazine] | 11 (compounds for which there was clear down regulation only at 50 μg/ml)
4 | CC(=O)Oc1cc(C)c(C2(c3cc(C(C)C)c(OC(C)=O)cc3C)OC(=O)c3ccccc32)cc1C(C)C [compound 1161] | 12 (compounds for which there was clear down regulation at 5 μg/ml and 50 μg/ml)
5 | COC(=O)[C@H]1[C@H]2C[C@@H]3c4[nH]c5cc(OC)ccc5c4CCN3C[C@H]2C[C@@H](OC(=O)c2cc(OC)c(OC)c(OC)c2)[C@@H]1OC [compound 875, Reserpine] | 12 (compounds for which there was clear down regulation at 5 μg/ml and 50 μg/ml)
6 | Cl.Cl.OCCN1CCN(CC/C=C2/c3ccccc3Sc3ccc(C(F)(F)F)cc32)CC1 [compound 340, Flupentixoldihydrochloride cis-(Z)] | 11 (compounds for which there was clear down regulation only at 50 μg/ml)
7 | CCOCCOC(=O)c1cc([N+](=O)[O-])cc2c1-c1c(cc([N+](=O)[O-])cc1[N+](=O)[O-])C2=C(C#N)C#N [compound 1241] | — (compounds for which there was no clear down regulation even at 50 μg/ml)
8 | CCCCOC(=O)c1cc([N+](=O)[O-])cc2c1-c1cc(CO)c([NH+]([O-])O)cc1C2=C(C#N)C#N (stereo not shown) [compound 939] | 11 (compounds for which there was clear down regulation only at 50 μg/ml)
9 | Cl.Cl.Fc1ccc(C(OCCN2CCN(CCCc3ccccc3)CC2)c2ccc(F)cc2)cc1 [compound 386, GBR 12909hydrochloride] | — (compounds for which there was no clear down regulation even at 50 μg/ml)
10 | COC(=O)c1cccc(C(O)(c2ccccc2)c2ccccc2)c1S(=O)(=O)C(C)(C)C [compound 1187] | — (compounds for which there was no clear down regulation even at 50 μg/ml)
11 | O=C1c2ccccc2C(=O)c2c1ccc1c(=O)n(-c3ccccc3)[nH]c21 [compound 1042] | 12 (compounds for which there was clear down regulation at 5 μg/ml and 50 μg/ml)
12 | CCCC(C(=O)OCCN(CC)CC)(c1ccccc1)c1ccccc1.Cl [compound 778, Proadifen hydrochloride] | 11 (compounds for which there was clear down regulation only at 50 μg/ml)
13 | CN(CCO)C(=O)c1cccc2c1-c1ccccc1C2=O [compound 890] | — (compounds for which there was no clear down regulation even at 50 μg/ml)
14 | CN1Cc2c(N)cccc2C(c2ccccc2)C1.O=C(O)/C=C\C(=O)O (stereo not shown) [compound 108, Nomifensine maleate] | 11 (compounds for which there was clear down regulation only at 50 μg/ml)
15 | Flunarizinehydrochloride [compound 312] | 12 (compounds for which there was clear down regulation at 5 μg/ml and 50 μg/ml)
16 | O=C1c2c(O)cccc2Cc2cccc(O)c21 [compound 43, Anthralin] | 13 (compounds for which there was clear down regulation at 0.5 μg/ml, 5 μg/ml, and 50 μg/ml)
17 | COC(=O)c1cccc2c1-c1ccccc1/C2=N/O [compound 904] | 13 (compounds for which there was clear down regulation at 0.5 μg/ml, 5 μg/ml, and 50 μg/ml)
18 | Nc1cccc2c1C(=O)c1cccc(N)c1C2=O [compound 413, Anthraquinone,1,5-diamino] | 13 (compounds for which there was clear down regulation at 0.5 μg/ml, 5 μg/ml, and 50 μg/ml)
19 | O=C1Nc2ccccc2Oc2ccc([N+](=O)[O-])cc21 [compound 1352] | 11 (compounds for which there was clear down regulation only at 50 μg/ml)
20 | O=c1[nH]c2ccccc2n1C1CCN(CCCC(c2ccc(F)cc2)c2ccc(F)cc2)CC1 [compound 308, Pimozide] | 12 (compounds for which there was clear down regulation at 5 μg/ml and 50 μg/ml)
21 | CN1CCN(C(c2ccccc2)c2ccccc2)CC1.Cl [compound 510, Cyclizine hydrochloride] | 11 (compounds for which there was clear down regulation only at 50 μg/ml)
22 | COc1ccc2c(c1)N(CC(C)CN(C)C)c1ccccc1S2.O=C(O)/C=C\C(=O)O (stereo not shown) [compound 797, Methotrimeprazinemaleat salt] | — (compounds for which there was no clear down regulation even at 50 μg/ml)
23 | Cc1cc(OC(=O)C2C3CCCCC32)c(C(C)C)cc1C1(c2cc(C(C)C)c(OC(=O)C3C4CCCCC43)cc2C)OC(=O)c2ccccc21 (stereo not shown) [compound 974] | — (compounds for which there was no clear down regulation even at 50 μg/ml)
24 | COc1ccc2[nH]c3c(c2c1)CCN=C3C [compound 621, Methoxy-6-harmalan] | 12 (compounds for which there was clear down regulation at 5 μg/ml and 50 μg/ml)
25 | c1ccc2c(c1)[nH]c1cnccc12 [compound 470, norharman] | 11 (compounds for which there was clear down regulation only at 50 μg/ml)
26 | Maprotilinehydrochloride [compound 346] | 11 (compounds for which there was clear down regulation only at 50 μg/ml)
27 | Prochlorperazinedimaleate [compound 399] | 12 (compounds for which there was clear down regulation at 5 μg/ml and 50 μg/ml)
28 | CN(C)CCC=C1c2ccccc2CCc2ccccc21.Cl [compound 74, Amitryptilinehydrochloride] | 12 (compounds for which there was clear down regulation at 5 μg/ml and 50 μg/ml)
29 | CN(C)CCCN1c2ccccc2Sc2ccc(Cl)cc21.Cl [compound 64, Chlorpromazinehydrochloride] | 12 (compounds for which there was clear down regulation at 5 μg/ml and 50 μg/ml)
30 | O=C(O)c1cc(C(c2ccc(O)c(C(=O)O)c2)C(Cl)(Cl)Cl)ccc1O [compound 884] | — (compounds for which there was no clear down regulation even at 50 μg/ml)
31 | CN1CCC2C(C1)c1ccccc1N2Cc1ccccc1 (stereo not shown) [compound 455, Mebhydroline 1,5 naphtalenedisulfonate] | 12 (compounds for which there was clear down regulation at 5 μg/ml and 50 μg/ml)
